{"source": "paper PMC12807552", "about": "“The Synthesis of BODIPY-TKI Conjugates and Investigation of Their Ability to Target the Epidermal Growth Factor Receptor” (Targets (Basel), 2023)", "target": "EGFR kinase domain (epidermal growth factor receptor) (Homo sapiens, UniProt P00533)", "sequence (P00533 695-1210)": "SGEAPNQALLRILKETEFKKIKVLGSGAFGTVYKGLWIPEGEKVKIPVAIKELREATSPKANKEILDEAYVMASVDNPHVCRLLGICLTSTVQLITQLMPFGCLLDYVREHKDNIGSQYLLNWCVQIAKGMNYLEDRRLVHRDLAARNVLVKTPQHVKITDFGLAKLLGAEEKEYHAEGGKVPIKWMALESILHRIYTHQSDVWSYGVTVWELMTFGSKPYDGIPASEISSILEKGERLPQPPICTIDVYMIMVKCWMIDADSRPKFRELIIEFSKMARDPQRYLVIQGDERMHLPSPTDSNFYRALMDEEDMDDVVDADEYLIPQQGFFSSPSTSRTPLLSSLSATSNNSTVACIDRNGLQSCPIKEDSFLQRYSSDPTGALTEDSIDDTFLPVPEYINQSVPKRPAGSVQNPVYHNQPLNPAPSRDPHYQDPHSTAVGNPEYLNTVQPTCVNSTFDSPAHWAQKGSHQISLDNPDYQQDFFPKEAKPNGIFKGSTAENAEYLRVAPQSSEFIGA", "assay": "biochemical", "data": [{"smiles": "COCCOc1cc2ncnc(Nc3cccc(-c4cn(CCOCCOCCOCCNC(=S)Nc5ccc(-c6c7ccccc7c7n6[B-](F)(F)[N+]6=C(c8ccc(N=C=S)cc8)c8ccccc8C6=C7c6cc(OC)cc(OC)c6)cc5)nn4)c3)c2cc1OCCOC", "note": "[compound 5, BODIPY-monoTKI]", "values": [{"measurement": "Kd", "result": 8.04, "unit": "µM"}]}]}
